These results are taken from PubChem BioAssay (NCI).

Some test systems named below: SK-MEL-2 melanoma; SR leukemia; SK-MEL-28 melanoma; HOP-92 NSCLC; SW-620 colon; OVCAR-4 ovarian; LOX IMVI melanoma; SF-268 CNS; MDA-MB-435; MCF7 breast.
Common to all, as to assay: growth of human tumour cells (NCI), 48 h

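Method: 48-hour compound exposure of cells in 96-well plates, five concentrations, linear interpolation of endpoints. The concentration for 50% growth inhibition is given as GI50. TGI: total growth inhibition.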

As to `CCN1CCC(O)(c2ccc(Cl)cc2)C(C(=O)c2ccc(Cl)cc2)C1` (centres undefined), the TGI in the experiment with SK-MEL-2 melanoma, with SR leukemia, in the experiment on SK-MEL-28 melanoma, with HOP-92 NSCLC, in the experiment on SW-620 colon and in the experiment with OVCAR-4 ovarian was over 100 µM throughout. Besides, the TGI with LOX IMVI melanoma and in the experiment on SF-268 CNS was over 100 µM in each case.

For the compound `CCOC(=O)c1[nH]c(COC(C)=O)c2c1CCCCCCCCCC2`, the TGI in the experiment on SK-MEL-2 melanoma, in the experiment on SR leukemia, in the experiment with HOP-92 NSCLC, in the experiment on SW-620 colon, with OVCAR-4 ovarian and in the experiment on LOX IMVI melanoma was over 100 µM throughout. Also, the TGI with SF-268 CNS is over 100 µM.

Regarding `CCN(CC)c1ccc(N=Nc2ccc(-c3nc4ccc[n+](C)c4o3)cc2)cc1`, the TGI with SK-MEL-2 melanoma amounted to 25.5 µM; in the experiment with SR leukemia, 20.9 µM; in the experiment on HOP-92 NSCLC it was 33.4 µM; in the experiment with SW-620 colon it was 16.2 µM; with OVCAR-4 ovarian it was 25.2 µM; with LOX IMVI melanoma, 18.5 µM. Besides, in the experiment on SF-268 CNS, the TGI is 31.4 µM.

As for `C=C(c1ccccc1)[C@@]1(O)CC[C@@H]1N(CC#N)Cc1ccccc1`, the TGI is 53.1 µM in the experiment with SK-MEL-2 melanoma; 47.5 µM with MDA-MB-435; over 69.9 µM with SR leukemia; 28.8 µM in the experiment on SK-MEL-28 melanoma; 34.9 µM in the experiment with HOP-92 NSCLC; 34.8 µM in the experiment on SW-620 colon. Besides, the TGI with OVCAR-4 ovarian is 29.1 µM; in the experiment with LOX IMVI melanoma, 34.6 µM; in the experiment with SF-268 CNS, over 83.9 µM.

Turning to `Cn1cc2ccccc2c1-c1nc(F)nc(OCC(=O)[C@H]2CCC3[C@@H]4CCC5=CC(=O)CC[C@]5(C)C4[C@@H](O)C[C@@]32C)n1` (some centres undefined), the TGI came to 31.3 µM in the experiment on SK-MEL-2 melanoma; 12.8 µM in the experiment on SR leukemia; 31.2 µM in the experiment on SK-MEL-28 melanoma; 36.6 µM in the experiment with HOP-92 NSCLC; 33.4 µM in the experiment on SW-620 colon; 29.6 µM with OVCAR-4 ovarian. Moreover, the TGI with LOX IMVI melanoma worked out at 23.3 µM; with SF-268 CNS, 33.3 µM.

In the case of `Cc1cc2c([nH]c3ccccc32)c2c1OC(C)(C)C1C3CC(C)(C)Oc4c(C)cc5c6ccccc6n(c5c43)C21` (centres undefined), the TGI with SK-MEL-2 melanoma, with SR leukemia, with SK-MEL-28 melanoma, in the experiment on HOP-92 NSCLC, in the experiment with SW-620 colon and with OVCAR-4 ovarian was over 100 µM throughout. In addition, the TGI in the experiment with LOX IMVI melanoma and in the experiment on SF-268 CNS was over 100 µM each time.

Turning to `N#CC1CCCCCCCCCCC(=O)N(CCCl)C1=O` (centres undefined), the TGI in the experiment on SK-MEL-2 melanoma, in the experiment on SK-MEL-28 melanoma, in the experiment on HOP-92 NSCLC, in the experiment with SW-620 colon, in the experiment with OVCAR-4 ovarian and in the experiment on LOX IMVI melanoma was over 100 µM each time. This compound also yielded a TGI with SF-268 CNS of over 100 µM.

As for `CN(C)CC/[N+]([O-])=C(/c1ccccc1)C12CC3CC(CC(C3)C1)C2`, the TGI came out at 34.9 µM in the experiment on SK-MEL-2 melanoma; 43.9 µM in the experiment on SR leukemia; 29.9 µM in the experiment on SK-MEL-28 melanoma; 28.8 µM with HOP-92 NSCLC; 31.2 µM in the experiment on LOX IMVI melanoma; 35.9 µM in the experiment on SF-268 CNS.

For the compound `COC(=O)CC[C@H](Cc1ccccc1)NC(=O)c1csc([C@@H](C[C@H](C(C)C)N(C)C(=O)[C@@H](NC(=O)[C@H]2CCCCN2C)C(C)C)OC(C)=O)n1`, the GI50 was under 0.0025 µM with SR leukemia; over 25 µM in the experiment on SK-MEL-28 melanoma; 4.93 µM with HOP-92 NSCLC; under 0.0025 µM with SW-620 colon; 0.023 µM with OVCAR-4 ovarian; under 0.0025 µM with LOX IMVI melanoma. For the same compound, the GI50 in the experiment on SF-268 CNS is 0.00785 µM; in the experiment on MCF7 breast, under 0.0025 µM. The TGI was over 8.5 µM with SR leukemia; over 25 µM with SK-MEL-28 melanoma; over 25 µM with HOP-92 NSCLC; over 25 µM in the experiment on SW-620 colon; over 25 µM with OVCAR-4 ovarian; over 25 µM in the experiment on LOX IMVI melanoma. Besides, the TGI with SF-268 CNS and with MCF7 breast was over 25 µM each time.

Consider `Cn1cc(C(=O)C[n+]2ccccc2)c2ccccc21`, for which the TGI in the experiment on SK-MEL-2 melanoma, in the experiment with SR leukemia, in the experiment on SW-620 colon, in the experiment with OVCAR-4 ovarian and in the experiment with LOX IMVI melanoma was over 100 µM in each case.

As to `COc1ccc(OCC(=O)O)c(C(=O)CCC(=O)O)c1`, the TGI with SK-MEL-2 melanoma, in the experiment with SR leukemia, in the experiment on SK-MEL-28 melanoma, in the experiment with HOP-92 NSCLC, in the experiment on SW-620 colon and in the experiment with OVCAR-4 ovarian was over 100 µM each time. The TGI with LOX IMVI melanoma and in the experiment with SF-268 CNS was over 100 µM each time.

As for `CC(C)OP(=O)(NC(=S)c1ccccc1)OC(C)C`, the TGI in the experiment with SK-MEL-2 melanoma, in the experiment on SK-MEL-28 melanoma, with HOP-92 NSCLC, with SW-620 colon, in the experiment on OVCAR-4 ovarian and in the experiment on LOX IMVI melanoma was over 100 µM throughout. This compound yielded a TGI with SF-268 CNS of over 100 µM.

Regarding `CC1(C)C2C=CC1C(=O)CC2` (centres undefined), the TGI in the experiment with SK-MEL-2 melanoma, in the experiment on SK-MEL-28 melanoma, in the experiment on HOP-92 NSCLC, in the experiment on SW-620 colon, in the experiment with OVCAR-4 ovarian and in the experiment with LOX IMVI melanoma was over 100 µM each time. The TGI with SF-268 CNS was over 100 µM.

On to `CC(=O)OCC1OC(n2c(-c3ccc(C)cc3)cc(-c3ccccc3)c(C#N)c2=O)C(OC(C)=O)C(OC(C)=O)C1OC(C)=O` (centres undefined), for which the TGI with SK-MEL-2 melanoma, in the experiment on SK-MEL-28 melanoma, in the experiment on HOP-92 NSCLC, in the experiment on SW-620 colon, in the experiment on OVCAR-4 ovarian and in the experiment on LOX IMVI melanoma was over 100 µM throughout. Further, the TGI in the experiment on SF-268 CNS was over 100 µM.

Regarding `O=c1cccccc1[O-].O=c1cccccc1[O-].O=c1cccccc1[O-].[La+3]`, the TGI in the experiment with SK-MEL-2 melanoma was 48 µM; in the experiment on HOP-92 NSCLC it was over 100 µM; with SW-620 colon, over 100 µM; in the experiment with OVCAR-4 ovarian, over 100 µM; in the experiment with LOX IMVI melanoma it was over 100 µM.

On to `Cc1cc2c(C)nn(Cc3ccc(Cl)cc3)c2c(C#N)c1C`, for which the TGI with SK-MEL-2 melanoma is over 100 µM; in the experiment with SR leukemia it was over 100 µM; in the experiment on SK-MEL-28 melanoma, over 100 µM; in the experiment with HOP-92 NSCLC, 95.1 µM; in the experiment on SW-620 colon, over 100 µM; in the experiment on SF-268 CNS, over 100 µM.

`COC(=O)Nc1nc2ccc(Br)cc2[nH]1`: the TGI in the experiment with SK-MEL-2 melanoma was 62.6 µM; with SR leukemia it was over 100 µM; in the experiment on SK-MEL-28 melanoma, over 100 µM; in the experiment with HOP-92 NSCLC, over 100 µM; in the experiment with SW-620 colon it was over 100 µM; in the experiment with OVCAR-4 ovarian, over 100 µM. Further, the TGI with LOX IMVI melanoma and in the experiment on SF-268 CNS was over 100 µM throughout.
